From patent publication US20150203517A1, “Prodrugs of Compounds that Enhance Antifungal Activity and Compositions of Said Prodrugs” (priority 2014, published 2015) come the findings set out here.

This series in a line: Saline solubility at 1.00 mg/mL and 0.50 mg/mL (with pH by indicator paper). Format: physicochemical. The conditions noted are these: for pH at 1.00 mg/mL of MGCD290 in saline: final concentration of hydroxamate 1 1.00 mg/mL, pH indicator paper; for solubility at 1 h: saline or isotonic, thermodynamic from solid, centrifuged, soluble = no precipitate formed. The protocol:
Assays were performed to determine the saline solubility at 1.00 and 0.50 mg/ml and the stability of certain of the prodrug compounds of Examples 1-111. The following procedures were used.
Step 1. Sample preparation. An amount of the compound sample was precisely weighed to correspond to around 5 mg of the hydroxamate of compound 1, taking into account the mass of the leaving group and the salt factor if applicable. The sample was placed in a 16×125 mm glass screw cap tube. Saline was added so that the final concentration of hydroxamate 1 was 1.00 mg/mL. The pH was measured with pH indicator paper. The tube was shaken for 1 hour on a Vortex apparatus then centrifuged at 3000 rpm (1800 rcf) for 5 minutes. If the compound example was soluble (no precipitate formed) the procedure continued to step 2. If a precipitate formed then the sample was diluted with saline so that the final concentration of the hydroxamate of compound 1 was 0.50 mg/mL, and the shaking and centrifuging steps were repeated. If the compound example was soluble (no precipitate formed) the procedure continued to step 2. If a precipitate formed the sample was discarded. Step 2. HPLC analysis. A 500 μL aliquot of a sample solution prepared according to Step 1 was taken up into a 1.5 mL injection vial to which was added 500 μL of saline. The vial was shaken on a Vortex apparatus, injected into the HPLC instrument (UV detection, zero time point) and the retention time and purity of the sample compound were determined. The injection was repeated after 6 hours and 24 hours, and a comparison was made of the retention time, peak areas and level of degradation (if any) using the GDADI50 method.

The mark [1] stands for this setting: 0.50 mg/mL as hydroxamate 1, shaken 1 hour, read-out: Soluble at 0.5 mg/mL of MGCD290 (Y/N).
[2] abbreviates: 1.00 mg/mL as hydroxamate 1, shaken 1 hour, read-out: Soluble at 1.00 mg/mL of MGCD290 (Y/N).

SMILES strings stand for the structures. Like-named read-outs stand apart in the source and are kept apart here. A value given as a limit tells only on which side of the number the result lay.

In the case of `COCCOCCOCCOCCOCC(=O)NCCC[C@H](NC(=O)COCCOCCOCCOCCOC)C(=O)NCCC(=O)ONC(=O)Cc1ccc(CCCCc2ccccc2)cc1` [Compound 160], the “pH at 1.00 mg/mL of MGCD290 in saline” value was 4.5-5. In addition, the solubility at 1 h under setting [1] was below 500 µg/mL. Further, the solubility at 1 h under setting [2] was below 1000 µg/mL.

For `COCCOCC(=O)NCCCC[C@H](NC(=O)COCCOC)C(=O)ONC(=O)Cc1ccc(CCCCc2ccccc2)cc1` [Compound 70], the “pH at 1.00 mg/mL of MGCD290 in saline” value was 4.5-5. Moreover, under setting [1], the solubility at 1 h was below 500 µg/mL. In addition, the solubility at 1 h under setting [2] was below 1000 µg/mL.

For `CC(=O)OCC(=O)NCCCC[C@H](NC(=O)COC(C)=O)C(=O)NCCC(=O)ONC(=O)Cc1ccc(CCCCc2ccccc2)cc1` [Compound 154], the “pH at 1.00 mg/mL of MGCD290 in saline” value was 4.5-5. Further, the solubility at 1 h under setting [1] is below 500 µg/mL. Also, the solubility at 1 h under setting [2] is below 1000 µg/mL.

As for `Cl.O=C(Cc1ccc(CCCCc2ccccc2)cc1)NOC(=O)CC1CCNCC1` [Compound 114], the “pH at 1.00 mg/mL of MGCD290 in saline” value is on record as 4-4.5. Further, the solubility at 1 h under setting [1] was below 500 µg/mL. The solubility at 1 h under setting [2] was below 1000 µg/mL.

As for `O=C(Cc1ccc(CCCCc2ccccc2)cc1)NOC(=O)CCC1CCCCC1` [Compound 52], the solubility at 1 h is below 500 µg/mL under setting [1] and below 1000 µg/mL under setting [2].

On to `COCCOCCOCC(=O)NCCN(CC(=O)NCCC(=O)ONC(=O)Cc1ccc(CCCCc2ccccc2)cc1)C(=O)COCCOCCOC` [Compound 136], for which the “pH at 1.00 mg/mL of MGCD290 in saline” value is 5.5-6. Moreover, the solubility at 1 h under setting [1] is below 500 µg/mL. In addition, the solubility at 1 h under setting [2] was below 1000 µg/mL.

As for `COCCOCCOCC(=O)NCC[C@H](NC(=O)COCCOCCOC)C(=O)NCCC(=O)ONC(=O)Cc1ccc(CCCCc2ccccc2)cc1` [Compound 147], the “pH at 1.00 mg/mL of MGCD290 in saline” value is reported as 4.5-5. Moreover, under setting [1], the solubility at 1 h is below 500 µg/mL. For the same molecule, the solubility at 1 h under setting [2] was below 1000 µg/mL.

With `COCCOCCOCCOCCOCC(=O)N1CCN(C(=O)ONC(=O)Cc2ccc(CCCCc3ccccc3)cc2)CC1` [Compound 81], the “pH at 1.00 mg/mL of MGCD290 in saline” value is listed as 4.5-5. In addition, the solubility at 1 h under setting [2] was above 1000 µg/mL.

In the case of `CC(=O)OCC(=O)NC[C@H](NC(=O)COC(C)=O)C(=O)NCCC(=O)ONC(=O)Cc1ccc(CCCCc2ccccc2)cc1` [Compound 146], the “pH at 1.00 mg/mL of MGCD290 in saline” value is 4.5-5. For the same molecule, the solubility at 1 h under setting [1] is below 500 µg/mL. Moreover, the solubility at 1 h under setting [2] is below 1000 µg/mL.

On to `COCCOCCOCC(=O)NCC1(C(=O)ONC(=O)Cc2ccc(CCCCc3ccccc3)cc2)CC1` [Compound 55, 2-(2-(2-Methoxyethoxyl)ethoxy)-N-((1-((2-(4-(4-phenylbutyl)phenyl)acetamidooxy)carbonyl)cyclopropyl)methyl)acetamide], for which the solubility at 1 h by setting is: under setting [1], below 500 µg/mL; under setting [2], below 1000 µg/mL.

For the molecule `Cl.O=C(Cc1ccc(CCCCc2ccccc2)cc1)NOC(=O)COC1CCNCC1` [Compound 125, 2-(4-(4-phenylbutyl)phenyl)-N-(2-(piperidin-4-yloxy)acetoxy)acetamide hydrochloride], the “pH at 1.00 mg/mL of MGCD290 in saline” value is 4.5-5. Besides, the solubility at 1 h under setting [1] was below 500 µg/mL. In addition, the solubility at 1 h under setting [2] was below 1000 µg/mL.

For `COCCOCCOCC(=O)NCCCC[C@H](NC(=O)COCCOCCOC)C(=O)NC[C@H](C)C(=O)ONC(=O)Cc1ccc(CCCCc2ccccc2)cc1` [Compound 91], the “pH at 1.00 mg/mL of MGCD290 in saline” value is recorded as 4.5-5. For the same molecule, the solubility at 1 h under setting [2] is above 1000 µg/mL.

Turning to `COCCOCC(=O)NCCC[C@H](NC(=O)COCCOC)C(=O)NCCC(=O)ONC(=O)Cc1ccc(CCCCc2ccccc2)cc1` [Compound 158], the “pH at 1.00 mg/mL of MGCD290 in saline” value is 4.5-5. Besides, the solubility at 1 h under setting [1] is below 500 µg/mL. Also, the solubility at 1 h under setting [2] was below 1000 µg/mL.

For `COCCOCCOCC(=O)NCCCC[C@H](NC(=O)COCCOCCOC)C(=O)ONC(=O)Cc1ccc(CCCCc2ccccc2)cc1` [Compound 71], the “pH at 1.00 mg/mL of MGCD290 in saline” value is recorded as 4.5-5. Also, under setting [1], the solubility at 1 h was below 500 µg/mL. The solubility at 1 h under setting [2] was below 1000 µg/mL.

As for `CCCC(CCC)C(=O)ONC(=O)Cc1ccc(CCCCc2ccccc2)cc1` [Compound 50, 2-(4-(4-Phenylbutyl)phenyl)-N-(2-propylpentanoyloxyl)acetamide], the solubility at 1 h runs as follows: under setting [1], below 500 µg/mL; under setting [2], below 1000 µg/mL.

As to `COCCOCCOCCOCC(=O)NCCCC[C@H](NC(=O)COCCOCCOCCOC)C(=O)NCCCC(=O)ONC(=O)Cc1ccc(CCCCc2ccccc2)cc1` [Compound 101], the “pH at 1.00 mg/mL of MGCD290 in saline” value is on record as 4.5-5. The solubility at 1 h under setting [2] is above 1000 µg/mL.

As for `COCCOCCOCC(=O)NCCN(CC(=O)NCCCC(=O)ONC(=O)Cc1ccc(CCCCc2ccccc2)cc1)C(=O)COCCOCCOC` [Compound 134, 2-(2-(2-Methoxyethoxyl)ethoxy)-N-(2-oxo-2-(4-oxo-4-(2-(4-(4-phenylbutyl)phenyl)acetamidooxy)butylamino)ethyl)-N-(10-oxo-2,5,8-trioxa-11-azatridecan-13-yl)acetamide], the “pH at 1.00 mg/mL of MGCD290 in saline” value was 5.5-6. The solubility at 1 h under setting [2] is above 1000 µg/mL.

As to `COCCOCCOCCOCCOCC(=O)NCCCC[C@H](NC(=O)COCCOCCOCCOCCOC)C(=O)NCCCC(=O)ONC(=O)Cc1ccc(CCCCc2ccccc2)cc1` [Compound 102], the “pH at 1.00 mg/mL of MGCD290 in saline” value is reported as 4.5-5. Moreover, under setting [2], the solubility at 1 h was above 1000 µg/mL.

With `COCCC(=O)NC[C@H](NC(=O)CCOC)C(=O)NCCC(=O)ONC(=O)Cc1ccc(CCCCc2ccccc2)cc1` [Compound 144], the “pH at 1.00 mg/mL of MGCD290 in saline” value is recorded as 4.5-5. Moreover, the solubility at 1 h under setting [1] is below 500 µg/mL. Also, the solubility at 1 h under setting [2] was below 1000 µg/mL.

Regarding `Cl.O=C(Cc1ccc(CCCCc2ccccc2)cc1)NOC(=O)CCC(=O)N1CCNCC1` [Compound 123, N-(4-oxo-4-(piperazin-1-yl)butanoyloxy)-2-(4-(4-phenylbutyl)phenyl) acetamide hydrochloride], the “pH at 1.00 mg/mL of MGCD290 in saline” value is 4.5-5. Under setting [2], the solubility at 1 h is above 1000 µg/mL.

On to `COCCOCCOCC(=O)NCCC[C@H](NC(=O)COCCOCCOC)C(=O)NCCC(=O)ONC(=O)Cc1ccc(CCCCc2ccccc2)cc1` [Compound 159], for which the “pH at 1.00 mg/mL of MGCD290 in saline” value is recorded as 4.5-5. Also, the solubility at 1 h under setting [1] is below 500 µg/mL. Also, under setting [2], the solubility at 1 h was below 1000 µg/mL.

`Cl.O=C(Cc1ccc(CCCCc2ccccc2)cc1)NOC(=O)CCCC1CCNCC1` [Compound 121, 2-(4-(4-phenylbutyl)phenyl)-N-(4-(piperidin-4-yl)butanoyloxy) acetamide hydrochloride]: the “pH at 1.00 mg/mL of MGCD290 in saline” value is given as 5.-5.5. In addition, under setting [1], the solubility at 1 h is below 500 µg/mL. Further, under setting [2], the solubility at 1 h was below 1000 µg/mL.

With `O=C1COCCOCC(=O)N[C@H](C(=O)NCCC(=O)ONC(=O)Cc2ccc(CCCCc3ccccc3)cc2)CCCCN1` [Compound 83, (S)-6,14-Dioxo-N-(3-oxo-3-(2-(4-(4-phenylbutyl)phenyl)acetamidooxy)propyl)-1,4-dioxa-7,13-diazacyclopentadecane-8-carboxamide], the “pH at 1.00 mg/mL of MGCD290 in saline” value is 4.5-5. Also, the solubility at 1 h under setting [1] was below 500 µg/mL. Also, under setting [2], the solubility at 1 h is below 1000 µg/mL.

As to `COCCOCCOCC(=O)NCCCC[C@H](N)C(=O)NCCC(=O)ONC(=O)Cc1ccc(CCCCc2ccccc2)cc1.Cl` [Compound 142, (S)-2-Amino-6-(2-(2-(2-methoxyethoxy)ethoxy)acetamido)-N-(3-oxo-3-(2-(4-(4-phenylbutyl)phenyl)acetamidooxy)propyl) hexanamide hydrochloride], the “pH at 1.00 mg/mL of MGCD290 in saline” value was 5-5.5. The solubility at 1 h under setting [2] was above 1000 µg/mL.

As to `COCCOCCOCCOCCOCC(=O)NCCC(=O)ONC(=O)Cc1ccc(CCCCc2ccccc2)cc1` [Compound 61], the “pH at 1.00 mg/mL of MGCD290 in saline” value was 4.5-5. Moreover, the solubility at 1 h under setting [1] is below 500 µg/mL. Under setting [2], the solubility at 1 h was below 1000 µg/mL.

As to `COCCOCCOCC(=O)N1CCC(CCC(=O)ONC(=O)Cc2ccc(CCCCc3ccccc3)cc2)CC1` [Compound 112], the “pH at 1.00 mg/mL of MGCD290 in saline” value is reported as 5.5-6. Moreover, under setting [1], the solubility at 1 h was below 500 µg/mL. Moreover, under setting [2], the solubility at 1 h is below 1000 µg/mL.

Turning to `COCCOCCOCCNC(=O)NCCC(=O)NCC1(C(=O)ONC(=O)Cc2ccc(CCCCc3ccccc3)cc2)CC1` [Compound 79, N-1-(2-(2-(2-Methoxyethoxyl)ethoxy)ethyl)-N-3-(2-(1-((2-(4-(4-phenylbutyl)phenyl)acetamidooxy)carbonylcyclopropyl)methyl)carbamoylethyl)urea], the “pH at 1.00 mg/mL of MGCD290 in saline” value is on record as 4.5-5. The solubility at 1 h under setting [1] was below 500 µg/mL. For the same molecule, under setting [2], the solubility at 1 h was below 1000 µg/mL.

In the case of `COCCOCCOCCOCCOCC(=O)NC[C@H](C)C(=O)ONC(=O)Cc1ccc(CCCCc2ccccc2)cc1` [Compound 87, (S)—N-(2-Methyl-3-oxo-3-(2-(4-(4-phenylbutyl)phenyl)acetamidooxy)propyl)-2,5,8,11,14-pentaoxahexadecan-16-amide], the “pH at 1.00 mg/mL of MGCD290 in saline” value is reported as 4.5-5. For the same molecule, the solubility at 1 h under setting [1] is below 500 µg/mL. The solubility at 1 h under setting [2] was below 1000 µg/mL.
